Measured values published in ChEMBL document CHEMBL4402540, “Structure-Activity Relationship Studies of Small Molecule Modulators of the Staphylococcal Accessory Gene Regulator” (J Med Chem, 2020).
Where a SMILES comes first, the peptide text is derived from it. Bridges are numbered along the chain shown (N, C = ends). [ ]: non-standard residue; d: D form. NMeF = CN[C@@H](Cc1ccccc1)C(=O)O; Dap = NC[C@H](N)C(=O)O; Mpa = O=C(O)CCS

Assays:
[1] = Inhibition of AgrC-1 Staphylococcus epidermidis AH3408 incubated for 24 hrs by fluorescence assay
[2] = Inhibition of AgrC-2 in Staphylococcus aureus RN9532 by beta-lactamase reporter gene assay
[3] = Agonist activity at AgrC-4 in Staphylococcus aureus RN9371 by beta-lactamase reporter gene assay
[4] = Inhibition of AgrC-2 in Staphylococcus aureus RN9372 by beta-lactamase reporter gene assay
[5] = molecular target: T1, Chloramphenicol acetyltransferase (Staphylococcus epidermidis) (UniProt D2JCN2); experiment: Activation of Chloramphenicol acetyltransferase activity in Staphylococcus epidermidis Tu3298 at 200 nM and measured every 15 sec for 20 mins (reference value: 12.5 U/mg)
T1 sequence (whole entry): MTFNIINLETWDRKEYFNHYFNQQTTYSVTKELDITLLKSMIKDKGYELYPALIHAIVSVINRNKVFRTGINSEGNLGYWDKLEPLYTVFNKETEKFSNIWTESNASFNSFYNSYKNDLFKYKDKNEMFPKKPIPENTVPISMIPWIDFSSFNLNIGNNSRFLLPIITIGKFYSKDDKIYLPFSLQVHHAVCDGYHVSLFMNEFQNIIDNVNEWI

[6] = molecular target: T2, Receptor-histidine kinase AgrC (Staphylococcus aureus, UniProt O07911); experiment: Inhibition of AgrC in mid-exponential phase Staphylococcus aureus RN6390B assessed as beta-lactamase activity incubated for 80 mins by spectrophotometric method
T2 sequence (O07911 whole entry): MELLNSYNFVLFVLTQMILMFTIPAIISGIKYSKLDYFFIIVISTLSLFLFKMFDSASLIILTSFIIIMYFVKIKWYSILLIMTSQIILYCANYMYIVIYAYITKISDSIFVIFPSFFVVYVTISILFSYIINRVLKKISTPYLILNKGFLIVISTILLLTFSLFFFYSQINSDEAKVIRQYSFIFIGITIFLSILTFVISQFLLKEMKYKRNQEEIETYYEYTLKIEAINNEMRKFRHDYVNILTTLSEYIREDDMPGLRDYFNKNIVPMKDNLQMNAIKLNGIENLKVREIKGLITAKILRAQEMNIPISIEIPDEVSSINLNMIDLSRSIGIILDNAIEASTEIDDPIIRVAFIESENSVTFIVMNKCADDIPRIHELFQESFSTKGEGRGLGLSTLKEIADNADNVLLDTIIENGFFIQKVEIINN

[7] = tested on: Staphylococcus aureus; experiment: Agonist activity at AgrC-1 in Staphylococcus aureus RN9222 incubated for 60 to 90 mins by beta-lactamase reporter gene assay
[8] = Agonist activity at AgrC-3 in Staphylococcus aureus incubated for 60 to 90 mins in presence of AIP agonist by beta-lactamase reporter gene assay
[9] = Inhibition of AgrC-2 in Staphylococcus aureus RN9372 incubated for 60 to 90 mins in presence of AIP agonist by beta-lactamase reporter gene assay
[10] = tested on: Staphylococcus aureus; experiment: Agonist activity at AgrC-4 in Staphylococcus aureus RN9371 incubated for 60 to 90 mins by beta-lactamase reporter gene assay
[11] = Inhibition of AgrC-3 in Staphylococcus aureus AH1747 incubated for 24 hrs by fluorescence assay
[12] = Inhibition of AgrC-4 in Staphylococcus aureus AH1872 incubated for 24 hrs by fluorescence assay
[13] = Inhibition of AgrC-2 in Staphylococcus aureus AH430 incubated for 24 hrs by fluorescence assay
[14] = Inhibition of AgrC-1 in Staphylococcus aureus RN9222 incubated for 1 hr in presence of AIP agonist by beta-lactamase reporter gene assay
[15] = Inhibition of AgrC-2 in Staphylococcus aureus RN9372 incubated for 1 hr in presence of AIP agonist by beta-lactamase reporter gene assay
[16] = Inhibition of AgrC-1 in Staphylococcus aureus AH1677 incubated for 24 hrs by fluorescence assay

Molecule `C[C@H](N)C(=O)N[C@@H](CO)C(=O)N[C@@H](C)C(=O)N[C@H]1CSC(=O)[C@H](Cc2ccccc2)NC(=O)[C@H](Cc2ccc(O)cc2)NC(=O)[C@H](C)NC(=O)[C@H](CO)NC1=O` (H-ASACSAYF; thioester 4-C) has an IC50 [1] of 2.08 nM.

In the case of `CC[C@H](C)[C@H](NC(=O)[C@@H](N)CC(=O)O)C(=O)N[C@H]1CSC(=O)[C@H](Cc2ccccc2)NC(=O)[C@H](Cc2ccc(O)cc2)NC(=O)[C@H](C)NC(=O)[C@H](CC(N)=O)NC1=O` (H-DICNAYF; thioester 3-C), the IC50 [2] is reported as 36.6 nM, the IC50 [3] is reported as > 1000 nM and the IC50 [4] is reported as 419 nM.

For `CC(C)[C@H](NC(=O)[C@H](CO)NC(=O)[C@@H](N)CC(=O)O)C(=O)N[C@H]1CSC(=O)[C@H](Cc2ccccc2)NC(=O)[C@H](Cc2ccc(O)cc2)NC(=O)[C@H](CO)NC(=O)[C@H](C)NC1=O` (H-DSVCASYF; thioester 4-C), the IC50 [2] was 13 nM, the IC50 [3] was > 1000 nM and the IC50 [4] was > 1000 nM. It also gave an Activity [5] of 53.3 U/mg.

`CC(C)[C@H](NC(=O)[C@H](CO)NC(=O)[C@H](CC(=O)O)NC(=O)CN)C(=O)N[C@H]1CSC(=O)[C@H](Cc2ccccc2)NC(=O)[C@H](Cc2ccc(O)cc2)NC(=O)[C@H](CO)NC(=O)[C@H](C)NC1=O` (H-GDSVCASYF; thioester 5-C) showed an Activity [5] of 15.6 U/mg.

Work on `CC(C)C[C@@H]1NC(=O)[C@H](CO)NC(=O)[C@H](CO)NC(=O)[C@@H](NC(=O)[C@H](C)NC(=O)[C@H](CC(N)=O)NC(=O)[C@@H](NC(=O)CN)C(C)C)COC(=O)[C@H](Cc2ccccc2)NC1=O` (H-GVNASSSLF; ester 5-C) yielded an IC50 [6] of 7.9 nM.

With `CC(C)C[C@@H]1NC(=O)[C@H](CO)NC(=O)[C@H](CO)NC(=O)[C@@H](NC(=O)[C@H](C)NC(=O)[C@H](CC(N)=O)NC(=O)[C@@H](NC(=O)CN)C(C)C)CNC(=O)[C@H](Cc2ccccc2)NC1=O` (H-GVNA[Dap]SSLF; lactam 5-C) the IC50 [6] was < 1 nM.

`CC(C)C[C@@H]1NC(=O)[C@H](Cc2ccc(O)cc2)NC(=O)[C@H](CO)NC(=O)[C@H](C)NC(=O)[C@@H](NC(=O)[C@@H]2CCCN2C(=O)[C@H](CC(N)=O)NC(=O)[C@H](Cc2ccc(O)cc2)NC(=O)[C@H](CCCCN)NC(=O)[C@H](C)NC(=O)[C@H](C)NC(=O)[C@@H](N)CC(N)=O)CSC1=O` (H-NAAKYNPCASYL; thioester 8-C) showed an IC50 [1] of 34.3 nM.

Work on `CC(C)C[C@@H]1NC(=O)[C@H](Cc2ccc(O)cc2)NC(=O)[C@H](CC(N)=O)NC(=O)[C@H](CO)NC(=O)[C@@H](NC(=O)[C@@H]2CCCN2C(=O)[C@H](CC(N)=O)NC(=O)[C@H](Cc2ccc(O)cc2)NC(=O)[C@H](CCCCN)NC(=O)[C@H](CO)NC(=O)[C@H](C)NC(=O)[C@@H](N)CC(N)=O)CSC1=O` (H-NASKYNPCSNYL; thioester 8-C) yielded an IC50 [1] of 9.64 nM.

For `CC(C)[C@H](NC(=O)[C@@H](N)CO)C(=O)N[C@H]1CSC(=O)[C@H](Cc2ccccc2)NC(=O)[C@H](Cc2ccc(O)cc2)NC(=O)[C@H](CO)NC(=O)[C@H](C)NC1=O` (H-SVCASYF; thioester 3-C), the Activity [5] was 16.1 U/mg.

`CC[C@H](C)[C@@H]1NC(=O)[C@H](Cc2ccccc2)NC(=O)[C@H](Cc2ccc(O)cc2)NC(=O)[C@@H](NC(=O)[C@@H](NC(=O)[C@H](CO)NC(=O)[C@@H](N)Cc2ccc(O)cc2)[C@@H](C)O)CSC(=O)[C@H](CCSC)NC1=O` (H-YSTCYFIM; thioester 4-C) gave an ED50 [7] of 62 nM, an IC50 [8] of 1 nM and an IC50 [9] of 4 nM. The ED50 [10] was 13 nM.

`CC(C)C[C@@H]1NC(=O)[C@H](CO)NC(=O)[C@H](CO)NC(=O)CCSC(=O)[C@H](Cc2ccccc2)N(C)C1=O` ([Mpa]SSL[NMeF]; thioester 1-C) showed an IC50 [11] of 0.329 nM, an IC50 [12] of 0.0957 nM and an IC50 [13] of 0.9 nM. The IC50 [14] was 1680 nM, the IC50 [15] was 47300 nM and the IC50 [16] was 0.257 nM.

In the case of H-DSVCASYF-OH, the Activity [5] is reported as 9.8 U/mg.

In the case of H-GDSVCASYF-OH, the Activity [5] is reported as 11.2 U/mg.

Molecule H-SVCASYF-OH has an Activity [5] of 8.9 U/mg.
